Assay results from patent US20200221740A1, “TERMINALIA FERDINANDIANA LEAF EXTRACT AND PRODUCTS CONTAINING EXTRACT OF TERMINALIA FERDINANDIANA LEAF” (RISING PHOENIX INDUSTRIES PTY LTD, priority 2017, published 2020).

What was measured:
[1] = test system: Shewanella frigidimarina strain NCIMB 400; test: disc diffusion growth inhibition screening; format: cell-based; details: S. frigidimarina
Description: Antibacterial screening: Environmental Shewanella strains: Shewanella putrefaciens strain 200, Shewanella baltica strain OS155, Shewanella frigidimarina strain NCIMB 400 and Shewanella loihica strain PV-4 were used. Antibacterial screening was achieved using a modified peptone/yeast extract (PYE) agar containing: 1 g/L peptone, 1.5 g/L yeast extract, 7.5 g/L NaCl, 1 g/L ammonium persulfate, 2.4 g/L HEPES buffer (pH 7.5) and 16 g/L bacteriological agar.
The S. putrefaciens and S. loihica cultures were incubated at 30° C. for 24 h. The S. baltica and S. frigidimarina cultures were incubated at 15° C. for 72 h. All stock cultures were subcultured and maintained in PYE media at 4° C.
Evaluation of antibacterial activity: Antibacterial activity screening of the T. ferdinandiana fruit and leaf extracts was assessed using a modified disc diffusion assay. Briefly, 100 μL of each individual Shewanella spp. was grown separately in 20 mL of fresh nutrient broth until an approximate count of 10^8 cells/mL was achieved. A volume of 100 μL of each bacterial suspension was spread onto nutrient agar plates and the extracts were tested for antibacterial activity using 5 mm sterilised filter paper discs. […]
Plates inoculated with S. putrefaciens or S. loihica cultures were incubated at 30° C. for 24 h. […] The diameters of the inhibition zones were measured to the closest whole millimetre. […]

[2] = test system: Shewanella putrefaciens strain 200; test: disc diffusion growth inhibition screening; format: cell-based; details: S. putrefaciens, 10 μL extract per disc, ampicillin 10 μg, 30° C. 24 h
Description: (§1) Antibacterial screening: Environmental Shewanella strains: Shewanella putrefaciens strain 200, Shewanella baltica strain OS155, Shewanella frigidimarina strain NCIMB 400 and Shewanella loihica strain PV-4 were used. Antibacterial screening was achieved using a modified peptone/yeast extract (PYE) agar containing: 1 g/L peptone, 1.5 g/L yeast extract, 7.5 g/L NaCl, 1 g/L ammonium persulfate, 2.4 g/L HEPES buffer (pH 7.5) and 16 g/L bacteriological agar. The S. putrefaciens and S. loihica cultures were incubated at 30° C. for 24 h. The S. baltica and S. frigidimarina cultures were incubated at 15° C. for 72 h. All stock cultures were subcultured and maintained in PYE media at 4° C. Evaluation of antibacterial activity: Antibacterial activity screening of the […] fruit and leaf extracts was assessed using a modified disc diffusion assay. […] Discs were infused with 10 μL of the […] fruit and leaf extracts, allowed to dry and placed onto the inoculated plates. The plates were left to stand at 4° C. for 2 h before incubation. Plates inoculated with S. putrefaciens or S. loihica cultures were incubated at 30° C. for 24 h. S. baltica or S. frigidimarina cultures were incubated at 15° C. for 72 h. The diameters of the inhibition zones were measured to the closest whole millimetre. Each assay was completed in at least triplicate. Mean values (±SEM) are reported in this study. Ampicillin discs (10 μg) were obtained and used as positive controls to compare antibacterial activity. Filter discs infused with 10 μL of distilled water were used as a negative control.

[3] = test system: Shewanella baltica strain OS155; test: disc diffusion growth inhibition screening; format: cell-based; details: S. baltica
Description: as §1

[4] = test system: Shewanella loihica strain PV-4; test: disc diffusion growth inhibition screening; format: cell-based; details: PV4, S. loihica, 10 μL extract per disc, ampicillin 10 μg, 30° C. 24 h
Description: as §1

[5] = test system: Artemia franciscana nauplii; test: Artemia franciscana nauplii lethality assay; details: potassium dichromate 1000 μg/mL
Description: Artemia franciscana nauplii toxicity screening: Toxicity was assessed using a modified Artemia franciscana nauplii lethality assay. Briefly, 400 μL of seawater containing ˜53 (mean 52.7, n=125, SD 11.8) A. franciscana nauplii were added to wells of a 48 well plate and immediately used in the bioassay. A volume of 400 μL of the reference toxin or the diluted plant extracts were transferred to the wells and incubated at 25±1° C. under artificial light (1000 Lux). For each plate, a 400 μL seawater negative control was run in triplicate. The wells were assessed at regular intervals and the number of dead counted. The nauplii were deemed dead if no movement of the appendages was observed within 10 seconds. After 24 h, all nauplii were sacrificed and counted to determine the total % mortality per well.
To further quantify the effects of toxin concentration on the initiation of mortality, the extracts were serially diluted in artificial seawater to test across a range of concentrations in the Artemia nauplii bioassay.

SMILES | growth inhibitory activity (in words) [1] | zone of inhibition at 10 µg/disc [2] | growth inhibitory activity (in words) [3] | zone of inhibition at 10 µg/disc [4] | onset of nauplii death [5] | mortality ([5]; within 5 hours)
CC1(C)S[C@@H]2[C@H](NC(=O)[C@H](N)c3ccccc3)C(=O)N2[C@H]1C(=O)O [ampicillin] | resistant | 8.3 ± 0.6 mm | unaffected | 19.6 ± 1.3 mm |  | 
[K+].[K+].[O]=[Cr](=[O])([O-])[O][Cr](=[O])(=[O])[O-] [potassium dichromate] |  |  |  |  | ≤ 3 h | 100%
